Literature values in US20210100738A1, “OXYGEN DELIVERY BEVERAGE” (RESPIROGEN, INC., priority 2018, published 2021).

Conditions: oral co-administration of lipids, in mammals

For `C=C(C)[C@@H]1CCC(C)=C[C@H]1c1c(O)cc(CCCCC)cc1O` [CBD, cannabidiol], which increase in bioavailability is on record?
The increase in bioavailability was ~3 fold.

With `CCCCCc1cc(O)c2c(c1)OC(C)(C)[C@@H]1CCC(C)=C[C@@H]21` [THC, Δ^9-tetrahydrocannabinol] as the compound, how does the increase in bioavailability read?
Its increase in bioavailability is “more than 2.5 fold”.
